Patent US6344458B1, “Piperazine ethylamide derivatives” (American Home Products Corporation, priority 1998, dated 2002)
Where a name gives a salt, the structure may show the parent alone.

Legend:
[1] = target: T1, human 5HT1A receptor (Homo sapiens, UniProt P08908); experiment: 5-HT1A Receptor Binding Assay ([3H] 8-OH-DPAT displacement); conditions: displacement of [3H] 8-OH-DPAT, CHO cells stably transfected with human 5HT1A receptor
T1 construct: expressed in transfected cells; host or cells: CHO cells (stably transfected)
T1 sequence (P08908 1-422): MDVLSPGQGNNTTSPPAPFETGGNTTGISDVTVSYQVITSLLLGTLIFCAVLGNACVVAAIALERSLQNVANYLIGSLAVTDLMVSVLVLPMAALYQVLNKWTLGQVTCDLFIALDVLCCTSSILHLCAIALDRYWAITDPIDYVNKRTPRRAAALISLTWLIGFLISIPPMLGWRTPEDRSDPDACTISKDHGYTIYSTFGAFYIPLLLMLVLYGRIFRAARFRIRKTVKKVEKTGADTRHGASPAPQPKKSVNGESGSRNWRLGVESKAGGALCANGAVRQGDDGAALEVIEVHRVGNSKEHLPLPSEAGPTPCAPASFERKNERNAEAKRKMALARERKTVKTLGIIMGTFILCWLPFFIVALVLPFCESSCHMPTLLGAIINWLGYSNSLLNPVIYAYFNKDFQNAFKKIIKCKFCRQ
Experimental: 5-HT1A Receptor Binding Assay
High affinity for the serotonin 5-HT1A receptor was established by testing a compound's ability to displace [^3H] 8-OH-DPAT binding in CHO cells stably transfected with the human 5HT1A receptor. Stably transfected CHO cells are grown in DMEM containing 10% heat inactivated FBS and non-essential amino acids. Cells are scraped off the plate, transferred to centrifuge tubes, and washed twice by centrifugation (2000 rpm for 10 min., 4° C.) in buffer (50 mM Tris pH 7.5). The resulting pellets are aliquoted and placed at −80° C. On the day of assay, the cells are thawed on ice and resuspended in buffer. The binding assay is performed in a 96 well microtiter plate in a total volume of 250 μL. Non-specific binding is determined in the presence of […] 5-HT, final ligand concentration is 1.5 nM. Following a 30 minute incubation at room temperature, the reaction is terminated by the addition of ice cold buffer and rapid filtration through a GF/B filter presoaked for 30 minutes in 0.5% PEI. Compounds are initially tested in a single point assay to determine percent inhibition at […], and Ki values are determined for the active compounds.

[2] = target: T1, human 5HT1A receptor; experiment: 5-HT1A Receptor Intrinsic Activity Assay (reversal of forskolin-stimulated cAMP); type: cell-based; conditions: for Emax: agonist activity, cAMP, forskolin-stimulated CHO cells with human 5-HT1A receptor
Experimental: 5-HT1A Receptor Intrinsic Activity Assay
The intrinsic activity of compounds of the present invention was established by testing the claimed compounds ability to reverse the stimulation of cyclic adenosinemonophosphate (cAMP) in CHO cells stably transfected with the human 5-HT1A receptor.
Stably transfected CHO cells were grown in DMEM containing 10% heat inactivated FBS and non-essential amino acids. The cells are plated at a density of […] per well in a 24 well plate and incubated for 2 days in a CO2 incubator. On the second day, the media is replaced with 0.5 mL treatment buffer (DMEM+25 mM HEPES, 5 mM theophylline, 10 μM pargyline) and incubated for 10 minutes at 37° C. Wells are treated with forskolin (1 μM final concentration) followed immediately by the test compound (0.1 and 1 μM for initial screen) and incubated for an additional 10 minutes at 37° C. The reaction is terminated by removal of the media and addition of 0.5 mL ice cold assay buffer (supplied in the RIA kit). Plates are stored at −20° C. prior to assessment of cAMP formation by RIA. EC50 values are determined for the active test compounds. Compounds shown to have no agonist activities (Emax=0%) are further analyzed for their ability to reverse agonist induced activity. In separate experiments, 6 concentrations of antagonist are preincubated for 20 minutes prior to the addition of agonist and forskolin. Cells are harvested as described above. The cAMP kit is supplied by Amersham and the RIA is performed as per kit instructions, and calculations of IC50 performed by GraphPad Prism.

Work on `COc1ccccc1N1CCN(CCN(Cc2ccccc2)C(=O)C2CCCCC2)CC1` [Compound 2, Cyclohexanecarboxylic acid benzyl-{2-[4-(2-methoxy-phenyl)-piperazin-1-yl]-ethyl}-amide] yielded a Ki [1] of 1.8 nM, an Emax [2] of 36% and an EC50 ([2]; agonist mode, reversal of forskolin-stimulated cAMP in CHO cells) of 4.2 nM.

Work on `COc1ccccc1N1CCN(CCN(Cc2cccc3ccccc23)C(=O)C2CCCCC2)CC1` [Compound 4, Cyclohexanecarboxylic acid{2-[4-(2-methoxy-phenyl)-piperazin-1-yl]-ethyl}-naphthalen-1-ylmethl-amide] yielded a Ki [1] of 26 nM and an Emax [2] of 88%.

For `COc1ccccc1N1CCN(CCN(CCCc2ccccc2)C(=O)C2CCCCC2)CC1` [Compound 8, Cyclohexanecarboxylic acid-{2-[4-(2-methoxy-phenyl)-piperazin-1-yl]-ethyl}-(3-phenyl-propyl)-amide], the Ki [1] was 20 nM and the Emax [2] was 77%.

Work on `COc1ccccc1N1CCN(CCN(Cc2ccccc2)C(=O)C2CCCCC2)CC1` (as salt: fumarate) [Compound 2, Cyclohexanecarboxylic acid benzyl-{2-[4-(2-methoxy-phenyl)-piperazin-1-yl]-ethyl}-amide] yielded a melting point of 144 to 146 °C.

Compound `COc1ccccc1N1CCN(CCN(Cc2ccc3ccccc3c2)C(=O)C2CCCCC2)CC1` [Compound 6, Cyclohexanecarboxylic acid-{2-[4-(2-methoxy-phenyl)-piperazin-1-yl]-ethyl}-naphthalen-2-ylmethyl-amide] has a Ki [1] of 1.2 nM, an Emax [2] of 0% and an IC50 ([2]; antagonist mode, reversal of agonist induced activity, preincubated 20 minutes before agonist and forskolin) of 24 nM.

`COc1ccccc1N1CCN(CCN(Cc2cccc3ccccc23)C(=O)C2CCCCC2)CC1` (as salt: fumarate) [Compound 4, Cyclohexanecarboxylic acid{2-[4-(2-methoxy-phenyl)-piperazin-1-yl]-ethyl}-naphthalen-1-ylmethl-amide] gave a melting point of 204 to 206 °C.

Work on `COc1ccccc1N1CCN(CCNC(=O)c2ccccc2)CC1` (as salt: fumaric acid salt) [Compound 1, N-{2-[4-(2-Methoxy-phenyl)-piperazin-1-yl]-ethyl}-benzamide] yielded a melting point of 136 to 138 °C.

Compound `COc1ccccc1N1CCN(CCNC(=O)CCc2ccccc2)CC1` (as salt: fumaric acid salt) [Compound 7, N-{2-[4-(2-Methoxy-phenyl)-piperazin-1-yl]-ethyl}-3-phenyl-propionamide] has a melting point of 107 to 108 °C.

`COc1ccccc1N1CCN(CCN(CCCc2ccccc2)C(=O)C2CCCCC2)CC1` (as salt: fumarate) [Compound 8, Cyclohexanecarboxylic acid-{2-[4-(2-methoxy-phenyl)-piperazin-1-yl]-ethyl}-(3-phenyl-propyl)-amide] showed a melting point of 103 to 105 °C.
